The source of these data is patent US10689401B2, “C5-C6-oxacyclic fused iminothiazine dioxide compounds bearing an ether linker as BACE inhibitors, compositions, and their use” (Merck Sharp & Dohme Corp., priority 2016, dated 2020).

The target of assay [1] is Recombinant human soluble BACE1 catalytic domain (Homo sapiens (Human), UniProt P56817). Put plainly: BACE1 HTRF FRET Assay. The note with it: for Ki: Ki calculated from IC50 using the Cheng-Prusoff equation, QSY7-APPswe-Eu substrate, pH 5.0, read-out: BACE-1 Ki; for inhibition at 10 µM: read-out: BACE-1 inhibition (printed in BACE-1 Ki column). It counts as biochemical. An excerpt:
Reagents: Na^+-Acetate pH 5.0; 1% Brij-35; Glycerol; Dimethyl Sulfoxide (DMSO); Recombinant human soluble BACE1 catalytic domain (>95% pure); APP Swedish mutant peptide substrate (QSY7-APP^swe-Eu): QSY7-EISEVNLDAEFC-Europium-amide.
A homogeneous time-resolved FRET assay can be used to determine IC50 values for inhibitors of the soluble human BACE1 catalytic domain. This assay monitors the increase of 620 nm fluorescence that resulted from BACE1 cleavage of an APPswedish APP^swe mutant peptide FRET substrate (QSY7-EISEVNLDAEFC-Europium-amide). This substrate contains an N-terminal QSY7 moiety that serves as a quencher of the C-terminal Europium fluorophore (620 nm Em). In the absence of enzyme activity, 620 nm fluorescence is low in the assay and increased linearly over 3 hours in the presence of uninhibited BACE1 enzyme. Inhibition of BACE1 cleavage of the QSY7-APP^swe-Eu substrate by inhibitors is manifested as a suppression of 620 nm fluorescence.
Varying concentrations of inhibitors at 3× the final desired concentration in a volume of 10 ul are preincubated with purified human BACE1 catalytic domain (3 nM in 10 μl) for 30 minutes at 30° C. in reaction buffer containing 20 mM Na-Acetate pH 5.0, 10% glycerol, 0.1% Brij-35 and 7.5% DSMO. Reactions are initiated by addition of 10 μl of 600 nM QSY7-APP^swe-Eu substrate (200 nM final) to give a final reaction volume of 30 μl in a 384 well Nunc HTRF plate. The reactions are incubated at 30° C. for 1.5 hours. The 620 nm fluorescence is then read on a Rubystar HTRF plate reader (BMG Labtechnologies) using a 50 millisecond delay followed by a 400 millisecond acquisition time window. Inhibitor IC50 values are derived from non-linear regression analysis of concentration response curves. Ki values are then calculated from IC50 values using the Cheng-Prusoff equation using a previously determined […] of 8 μM for the QSY7-APP^swe-Eu substrate at BACE1.

For assay [2], the target named is purified human autoBACE-2 (Homo sapiens (Human), UniProt Q9Y5Z0). Nature of the assay: BACE-2 Assay (BACE-HTRF assay). It counts as biochemical. The note with it: Ki calculated from IC50 using the Cheng-Prusoff equation; QSY7-EISEVNLDAEFC-Eu-amide substrate, pH 5.0. The method, then:
Inhibitor IC50s at purified human autoBACE-2 are determined in a time-resolved endpoint proteolysis assay that measures hydrolysis of the QSY7-EISEVNLDAEFC-Eu-amide FRET peptide substrate (BACE-HTRF assay). BACE-mediated hydrolysis of this peptide results in an increase in relative fluorescence (RFU) at 620 nm after excitation with 320 nm light. Inhibitor compounds, prepared at 3× the desired final concentration in 1×BACE assay buffer (20 mM sodium acetate pH 5.0, 10% glycerol, 0.1% Brij-35) supplemented with 7.5% DMSO are preincubated with an equal volume of autoBACE-2 enzyme diluted in 1×BACE assay buffer (final enzyme concentration 1 nM) in black 384-well NUNC plates for 30 minutes at 30° C. […] DMSO is present at 5% final concentration in the assay. Following laser excitation of sample wells at 320 nm, the fluorescence signal at 620 nm is collected for 400 ms following a 50 μs delay on a RUBYstar HTRF plate reader (BMG Labtechnologies). Raw RFU data is normalized to maximum (1.0 nM BACE/DMSO) and minimum (no enzyme/DMSO) RFU values. IC50s are determined by nonlinear regression analysis (sigmoidal dose response, variable slope) of percent inhibition data with minimum and maximum values set to 0 and 100 percent respectively. Similar IC50s are obtained when using raw RFU data. The Ki values are calculated from the IC50 using the Cheng-Prusoff equation.

Usually Ki stands for the dissociation constant of the complex between target and ligand, obtained from inhibition or displacement. The term inhibition denotes the percentage by which the read-out fell short of the control.

Chain of purified human autoBACE-2 (Q9Y5Z0 63-518): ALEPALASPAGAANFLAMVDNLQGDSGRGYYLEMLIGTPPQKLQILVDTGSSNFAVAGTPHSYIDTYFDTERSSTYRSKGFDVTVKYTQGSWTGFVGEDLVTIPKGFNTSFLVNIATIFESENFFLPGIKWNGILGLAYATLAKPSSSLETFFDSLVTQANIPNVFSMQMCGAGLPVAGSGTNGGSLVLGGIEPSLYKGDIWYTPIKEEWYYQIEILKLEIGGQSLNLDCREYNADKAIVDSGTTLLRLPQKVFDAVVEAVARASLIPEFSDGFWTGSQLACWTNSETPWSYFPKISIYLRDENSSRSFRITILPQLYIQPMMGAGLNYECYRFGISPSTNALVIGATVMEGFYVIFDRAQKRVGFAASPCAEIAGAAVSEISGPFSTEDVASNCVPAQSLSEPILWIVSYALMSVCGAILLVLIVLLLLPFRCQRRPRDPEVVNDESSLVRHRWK
Chain of Recombinant human soluble BACE1 catalytic domain (P56817 75-416): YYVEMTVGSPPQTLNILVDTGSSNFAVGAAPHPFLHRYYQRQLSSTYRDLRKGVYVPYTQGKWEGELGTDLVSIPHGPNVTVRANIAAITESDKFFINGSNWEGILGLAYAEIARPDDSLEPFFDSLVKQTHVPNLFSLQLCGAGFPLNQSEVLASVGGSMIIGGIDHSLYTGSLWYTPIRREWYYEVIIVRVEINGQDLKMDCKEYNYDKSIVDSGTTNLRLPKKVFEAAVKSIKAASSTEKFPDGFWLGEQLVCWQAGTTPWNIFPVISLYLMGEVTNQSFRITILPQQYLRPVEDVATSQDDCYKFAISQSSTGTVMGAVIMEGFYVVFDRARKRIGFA

Regarding `C[C@H]1C[C@@H]2[C@](c3ccccc3F)(CO1)NC(=N)C(C)(C)S2(=O)=O` [Example 1, (4aS,7S,8aR)-4a-(2-fluorophenyl)-3-imino-2,2,7-trimethyloctahydropyrano[4,3-b][1,4]thiazine 1,1-dioxide], the Ki was 363 nM in assay [1] and 72.5 nM in assay [2].
In the case of `C[C@@H]1C[C@@H]2[C@](c3ccccc3F)(CO1)NC(=N)C(C)(C)S2(=O)=O` [Example 2, (4aS,7R,8aR)-4a-(2-fluorophenyl)-3-imino-2,2,7-trimethyloctahydropyrano[4,3-b][1,4]thiazine 1,1-dioxide], in assay [1], the inhibition at 10 µM was 50%. The Ki in assay [2] was 6260 nM.
`C[C@H]1C[C@@H]2[C@](c3cc(Br)ccc3F)(CO1)NC(=N)C(C)(C)S2(=O)=O` [Example 3, (4aS,7S,8aR)-4a-(5-bromo-2-fluorophenyl)-3-imino-2,2,7 trimethyloctahydropyrano[4,3-b][1,4]thiazine 1,1-dioxide]: the results for the inhibition constant Ki in assay [1] and in assay [2] were 1210 nM and 399 nM, respectively.
In the case of `CC(C)COc1ccc(F)c([C@]23CO[C@@H](C)C[C@H]2S(=O)(=O)C(C)(C)C(=N)N3)c1` [Example 4, (4aS,7S,8aR)-4a-(2-fluoro-5-isobutoxyphenyl)-3-imino-2,2,7-trimethyloctahydropyrano[4,3-b][1,4]thiazine 1,1-dioxide], the inhibitory constant (Ki) in assay [1] was 354 nM; in assay [2], 31.6 nM.
For the compound `C[C@H]1C[C@@H]2[C@](c3cc(Oc4ncccc4F)ccc3F)(CO1)NC(=N)C(C)(C)S2(=O)=O` [Example 5, (4aS,7S,8aR)-4a-(2-fluoro-5-((3-fluoropyridin-2-yl)oxy)phenyl)-3-imino-2,2,7-trimethyloctahydropyrano[4,3-b][1,4]thiazine 1,1-dioxide], the Ki in assay [1] was 17.5 nM; in assay [2], 4.9 nM.
For `C[C@H]1C[C@@H]2[C@](c3cc(Oc4cc(C#N)ccn4)ccc3F)(CO1)NC(=N)C(C)(C)S2(=O)=O` [Example 6, 2-(4-fluoro-3-((4aS,7S,8aR)-3-imino-2,2,7-trimethyl-1,1-dioxidooctahydropyrano[4,3-b][1,4]thiazin-4a-yl)phenoxy)isonicotinonitrile] the same measures were 23.6 nM and 19.2 nM.
`C[C@H]1C[C@@H]2[C@](c3cc(Oc4ncc(F)cc4F)ccc3F)(CO1)NC(=N)C(C)(C)S2(=O)=O` [Example 7, (4aS,7S,8aR)-4a-(5-((3,5-difluoropyridin-2-yl)oxy)-2-fluorophenyl)-3-imino-2,2,7-trimethyloctahydropyrano[4,3-b][1,4]thiazine 1,1-dioxide]: the Ki in assay [1] is 53.6 nM; in assay [2], 28.9 nM.
As for `C[C@@H]1C[C@@H]2[C@](c3cc(OCC4CC4)ccc3F)(CO1)NC(=N)C(C)(C)S2(=O)=O` [Example 8, (4aS,7R,8aR)-4a-(5-(cyclopropylmethoxy)-2-fluorophenyl)-3-imino-2,2,7-trimethyloctahydropyrano[4,3-b][1,4]thiazine 1,1-dioxide], the inhibition constant Ki in assay [1] is 4480 nM; in assay [2], 1180 nM.
For `C[C@H]1C[C@@H]2[C@](c3cc(OCC4CC4)ccc3F)(CO1)NC(=N)C(C)(C)S2(=O)=O` [Example 9, (4aS,7S,8aR)-4a-(5-(cyclopropylmethoxy)-2-fluorophenyl)-3-imino-2,2,7-trimethyloctahydropyrano[4,3-b][1,4]thiazine 1,1-dioxide] the same measures were 94.2 nM and 11.4 nM.
Turning to `COc1ccc(F)c([C@]23CO[C@@H](C)C[C@H]2S(=O)(=O)C(C)(C)C(=N)N3)c1` [Example 10, (4aS,7S,8aR)-4a-(2-fluoro-5-methoxyphenyl)-3-imino-2,2,7-trimethyloctahydropyrano[4,3-b][1,4]thiazine 1,1-dioxide], the Ki is 681 nM in assay [1] and 249 nM in assay [2].
With `COc1ccc(F)c([C@]23CO[C@H](C)C[C@H]2S(=O)(=O)C(C)(C)C(=N)N3)c1` [Example 11, (4aS,7R,8aR)-4a-(2-fluoro-5-methoxyphenyl)-3-imino-2,2,7-trimethyloctahydropyrano[4,3-b][1,4]thiazine 1,1-dioxide], in assay [1], the inhibition at 10 µM stood at 27%. The inhibition constant Ki in assay [2] is 8400 nM.
In the case of `COc1ccc(F)c([C@]23CO[C@@H](c4ccc(F)cc4)C[C@H]2S(=O)(=O)C(C)(C)C(=N)N3)c1` [Example 12, (4aS,7R,8aR)-4a-(2-fluoro-5-methoxyphenyl)-7-(4-fluorophenyl)-3-imino-2,2-dimethyloctahydropyrano[4,3-b][1,4]thiazine 1,1-dioxide], the inhibition constant Ki in assay [1] was 184 nM; in assay [2], 96.3 nM.
As for `CC1(C)C(=N)N[C@@]2(c3cc(OCC4CC4)ccc3F)CO[C@@H](c3ccc(F)cc3)C[C@H]2S1(=O)=O` [Example 13, (4aS,7R,8aR)-4a-(5-(cyclopropylmethoxy)-2-fluorophenyl)-7-(4-fluorophenyl)-3-imino-2,2-dimethyloctahydropyrano[4,3-b][1,4]thiazine 1,1-dioxide], the Ki in assay [1] was 115 nM; in assay [2], 11.7 nM.
Consider `CC1(C)C(=N)N[C@@]2(c3cc(Oc4ncccc4F)ccc3F)CO[C@@H](c3ccc(F)cc3)C[C@H]2S1(=O)=O` [Example 14, (4aS,7R,8aR)-4a-(2-fluoro-5-((3-fluoropyridin-2-yl)oxy)phenyl)-7-(4-fluorophenyl)-3-imino-2,2-dimethyloctahydropyrano[4,3-b][1,4]thiazine 1,1-dioxide], for which the Ki in assay [1] was 3.9 nM; in assay [2], 1.9 nM.
For `CC1(C)C(=N)N[C@@]2(c3cc(Oc4cc(C#N)ccn4)ccc3F)CO[C@@H](c3ccc(F)cc3)C[C@H]2S1(=O)=O` [Example 15, 2-(4-fluoro-3-((4aS,7R,8aR)-7-(4-fluorophenyl)-3-imino-2,2-dimethyl-1,1-dioxidooctahydropyrano[4,3-b][1,4]thiazin-4a-yl)phenoxy)isonicotinonitrile] the same measures were 17.9 nM and 19.8 nM.
Take `COc1ccc(F)c([C@]23CO[C@@H](CO)C[C@H]2S(=O)(=O)C(C)(C)C(=N)N3)c1` [Example 16, (4aS,7R,8aR)-4a-(2-fluoro-5-methoxyphenyl)-7-(hydroxymethyl)-3-imino-2,2-dimethyloctahydropyrano[4,3-b][1,4]thiazine 1,1-dioxide]: the figures for the inhibition constant Ki in assay [1] and in assay [2] were 2860 nM and 2020 nM, respectively.
Regarding `CC1(C)C[C@@H]2[C@](c3ccccc3F)(CO1)NC(=N)C(C)(C)S2(=O)=O` [Example 17, (4aS,8aR)-4a-(2-fluorophenyl)-2,2,7,7-tetramethyltetrahydro-2H,5H-pyrano[4,3-b][1,4]thiazin-3(4H)-imine 1,1-dioxide], the inhibition constant (Ki) in assay [1] was 300 nM; in assay [2], 293 nM.
For `CC1(C)C[C@@H]2[C@](c3cc(Oc4ncccc4F)ccc3F)(CO1)NC(=N)C(C)(C)S2(=O)=O` [Example 18, (4aS,8aR)-4a-{2-fluoro-5-[(3-fluoropyridin-2-yl)oxy]phenyl}-2,2,7,7-tetramethyltetrahydro-2H,5H-pyrano[4,3-b][1,4]thiazin-3(4H)-imine 1,1-dioxide] the same measures were 22.4 nM and 42.2 nM.
Consider `CC1(C)C[C@@H]2[C@](c3cc(Oc4cc(C#N)ccn4)ccc3F)(CO1)NC(=N)C(C)(C)S2(=O)=O` [Example 19], for which the figures for the Ki in assay [1] and in assay [2] were 33.8 nM and 65.2 nM, respectively.
